The source of these data is ChEMBL document CHEMBL4334495, “Design and Biological Evaluation of m-Xylene Thioether-Stapled Short Helical Peptides Targeting the HIV-1 gp41 Hexameric Coiled-Coil Fusion Complex” (J Med Chem, 2019).

Starred links: 1 amine or outer side, 2 acyl side, 3 side chain; linkers in the order of their positions; H or OH if unused. Positions of bridges follow the written chain, without caps; N, C: chain ends. Non-standard residues stand in square brackets, D forms with d. Residues, ends and D or L forms follow the SMILES beside them. ξ: configuration not given here. mXylylene = c1cc(C[*:1])cc(C[*:2])c1; ξhCys = NC(CCS)C(=O)O

For test [1], the target named is Envelope glycoprotein gp160 (Human immunodeficiency virus 1) (UniProt Q6QLK5). As to the kind of experiment: Synergistic inhibition of HIV1 gp41-induced cell-cell fusion between viral envelope expressing human HL2/3 cells to CD4/CCR5 receptor expressing TZM-bl cells assessed as combination index at 4:1 compound to HP23 ratio incubated for 6 hrs by luciferase reporter gene assay. In general terms: In a reporter assay the amount or activity of a reporter protein is the signal.

Test [2] has the same target. As to the kind of experiment: Synergistic inhibition of HIV1 gp41-induced cell-cell fusion between viral envelope expressing human HL2/3 cells to CD4/CCR5 receptor expressing TZM-bl cells assessed as combination index at 1:1 compound to HP23 ratio incubated for 6 hrs by luciferase reporter gene assay.
Test [3] deals with Human immunodeficiency virus 1. As to the kind of experiment: Antiviral activity against R5 tropic HIV-1 subtype-B Bal infected in human MT2 cells or CEMx174 5.25 M7 cells assessed as reduction in p24 Gag protein production at 3:1 ratio of compound to HP23 measured at 4 days post-infection by ELISA. The class given is functional, cell-based, HIV-1 group M. As to conditions: Human immunodeficiency virus 1, Bal, 96 h.

For test [4], the system named is Human immunodeficiency virus 1. As to the kind of experiment: Antiviral activity against R5 tropic HIV-1 subtype-B Bal infected in human MT2 cells or CEMx174 5.25 M7 cells assessed as reduction in p24 Gag protein production at 6:1 ratio of compound to HP23 measured at 4 days post-infection by ELISA. As to conditions: Human immunodeficiency virus 1, Bal, 96 h. Format: functional, cell-based, HIV-1 group M. For orientation: An ELISA detects its analyte on a solid surface through an enzyme-linked reagent.

Test [5] deals with Human immunodeficiency virus 1. As to the kind of experiment: Antiviral activity against HIV1 NL4-3 infected in human MT2 cells or CEMx174 5.25 M7 cells assessed as reduction in p24 Gag protein production at 10:1 compound to HP23 ratio measured at 4 days post-infection by ELISA. The note with it: Human immunodeficiency virus 1, NL4-3, 96 h. Format: functional, organism-based.

Test [6] has as its system Human immunodeficiency virus 1. As to the kind of experiment: Ratio of EC50 for antiviral activity against HIV1 NL4-3 infected in human MT2 cells or CEMx174 5.25 M7 cells in absence of HP23 to EC50 for antiviral activity against HIV1 NL4-3 infected in human MT2 cells or CEMx174 5.25 M7 cells at 10:1 compound to HP23 ratio. Format: functional.
Test [7] deals with Human immunodeficiency virus 1. As to the kind of experiment: Antiviral activity against T20 resistant HIV1 NL4-3 harboring with V38E/N42T mutant infected in human MT2 cells or CEMx174 5.25 M7 cells assessed as reduction in p24 Gag protein production at 150:1 compound to HP23 ratio measured at 4 days post-infection by ELISA. The class given is functional, organism-based.
The subject of test [8] is Human immunodeficiency virus 1. As to the kind of experiment: Ratio of EC50 for antiviral activity against T2635 resistant HIV1 LAI harboring Q66R mutant infected in human MT2 cells or CEMx174 5.25 M7 cells in absence of HP23 to antiviral activity against T2635 resistant HIV1 LAI harboring Q66R mutant infected in human MT2 cells or CEMx174 5.25 M7 cells at 25:1 ratio of compound to HP23. The class given is functional, M:B_Lai.

The target of test [9] is Envelope glycoprotein gp160 (Human immunodeficiency virus 1) (UniProt Q6QLK5). As to the kind of experiment: Ratio of EC50 for inhibition of HIV1 gp41-induced cell-cell fusion between viral envelope expressing human HL2/3 cells to CD4/CCR5 receptor expressing TZM-bl cells in absence of HP23 to EC50 for inhibition of HIV1 gp41-induced cell-cell fusion between viral envelope expressing human HL2/3 cells to CD4/CCR5 receptor expressing TZM-bl cells at 4:1 ratio of hCS6ERE to compound.

The test system of test [10] is Human immunodeficiency virus 1. As to the kind of experiment: Antiviral activity against X4 tropic HIV-1 subtype-B 3B infected in human MT2 cells or CEMx174 5.25 M7 cells assessed as reduction in p24 Gag protein production at 24:1 ratio of hCS6ERE to compound measured at 4 days post-infection by ELISA. Format: functional, cell-based, HIV-1 group M. The note with it: Human immunodeficiency virus 1, 3B, 96 h.

The test system of test [11] is Human immunodeficiency virus 1. As to the kind of experiment: Ratio of EC50 for antiviral activity against X4 tropic HIV-1 subtype-B 3B infected in human MT2 cells or CEMx174 5.25 M7 cells in absence of hCS6ERE to EC50 for antiviral activity against X4 tropic HIV-1 subtype-B 3B infected in human MT2 cells or CEMx174 5.25 M7 cells at 24:1 ratio of hCS6ERE to compound. Format: functional, HIV-1 group M.

For test [12], the system named is Human immunodeficiency virus 1. As to the kind of experiment: Antiviral activity against R5 tropic HIV-1 subtype-B Bal infected in human MT2 cells or CEMx174 5.25 M7 cells assessed as reduction in p24 Gag protein production at 6:1 ratio of hCS6ERE to compound measured at 4 days post-infection by ELISA. Format: functional, cell-based, HIV-1 group M. As to conditions: Human immunodeficiency virus 1, Bal, 96 h.

For test [13], the system named is Human immunodeficiency virus 1. As to the kind of experiment: Antiviral activity against HIV1 NL4-3 infected in human MT2 cells or CEMx174 5.25 M7 cells assessed as reduction in p24 Gag protein production at 5:1 hCS6ERE to compound ratio measured at 4 days post-infection by ELISA. Format: functional, organism-based. As to conditions: Human immunodeficiency virus 1, NL4-3, 96 h.

For test [14], the system named is Human immunodeficiency virus 1. As to the kind of experiment: Antiviral activity against T20 resistant HIV1 NL4-3 harboring with V38E/N42T mutant infected in human MT2 cells or CEMx174 5.25 M7 cells assessed as reduction in p24 Gag protein production at 150:1 hCS6ERE to compound ratio measured at 4 days post-infection by ELISA. Format: functional, organism-based.

Test [15] has as its system Human immunodeficiency virus 1. As to the kind of experiment: Antiviral activity against T2635 resistant HIV1 LAI harboring Q66R mutant infected in human MT2 cells or CEMx174 5.25 M7 cells assessed as reduction in p24 Gag protein production at 12.5:1 ratio of hCS6ERE to compound measured at 4 days post infection by ELISA. The class given is functional, organism-based, M:B_Lai.

For orientation: EC50 means the midpoint of the concentration-response curve.

Envelope glycoprotein gp160 (Human immunodeficiency virus 1), sequence (Q6QLK5 1-814): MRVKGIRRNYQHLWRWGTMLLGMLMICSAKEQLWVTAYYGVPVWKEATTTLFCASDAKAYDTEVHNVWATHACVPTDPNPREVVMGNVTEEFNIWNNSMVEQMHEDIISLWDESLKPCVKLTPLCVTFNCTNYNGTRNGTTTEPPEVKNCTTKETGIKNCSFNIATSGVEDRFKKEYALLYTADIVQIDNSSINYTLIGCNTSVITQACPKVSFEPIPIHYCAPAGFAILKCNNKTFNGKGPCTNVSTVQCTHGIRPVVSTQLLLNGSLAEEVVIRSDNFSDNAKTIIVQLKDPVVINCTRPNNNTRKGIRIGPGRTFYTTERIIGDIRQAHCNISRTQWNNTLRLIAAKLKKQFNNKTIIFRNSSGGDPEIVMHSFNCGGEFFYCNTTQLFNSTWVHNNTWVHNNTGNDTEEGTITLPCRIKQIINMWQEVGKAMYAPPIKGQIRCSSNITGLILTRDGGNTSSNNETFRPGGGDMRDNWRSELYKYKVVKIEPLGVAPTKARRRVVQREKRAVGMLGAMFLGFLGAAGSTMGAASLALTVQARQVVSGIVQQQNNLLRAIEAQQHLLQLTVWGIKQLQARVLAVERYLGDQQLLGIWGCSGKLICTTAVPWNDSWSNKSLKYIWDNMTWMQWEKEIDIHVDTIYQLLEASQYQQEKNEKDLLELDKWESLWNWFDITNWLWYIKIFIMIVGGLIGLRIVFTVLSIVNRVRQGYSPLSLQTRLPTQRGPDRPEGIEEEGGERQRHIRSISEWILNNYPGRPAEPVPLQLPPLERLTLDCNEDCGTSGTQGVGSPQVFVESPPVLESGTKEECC

For the molecule `CC[C@H](C)[C@H](NC(C)=O)C(=O)N[C@@H](CCC(=O)O)C(=O)N[C@@H](CCC(=O)O)C(=O)N[C@@H](CC(C)C)C(=O)N[C@H](C(=O)NC1CCSCc2cccc(c2)CSCCC(C(=O)N[C@@H](CCC(N)=O)C(=O)N[C@@H](CCC(N)=O)C(=O)N[C@@H](CCCNC(=N)N)C(=O)N[C@@H](CCCCN)C(=O)N[C@@H](CC(N)=O)C(=O)N[C@@H](CCC(=O)O)C(=O)N[C@@H](CCC(=O)O)C(=O)N[C@@H](C)C(=O)N[C@@H](CC(C)C)C(=O)N[C@@H](CCCNC(=N)N)C(=O)N[C@@H](CCC(=O)O)C(=O)N[C@@H](CC(C)C)C(N)=O)NC(=O)[C@H](CCC(N)=O)NC(=O)[C@H](C)NC(=O)[C@H](C)NC1=O)[C@@H](C)CC` (stereo not given in full) (Ac-IEELI[ξhCys]AAQ[ξhCys]QQRKNEEALREL-NH2; linker 6-10 via mXylylene), the CI in [1] came out at 0.6; in test [2], 0.9. Further, the EC50 is 4.1 nM in [3], 6 nM in test [4], 9 nM in test [5] and 327 nM in [7]. The “Ratio EC50” value is given as 2.5 in [6] and 2.2 in test [8].

On to H-EMTWEEWEKKIEEYTKKIEEILK-OH, for which the Ratio EC50 in test [9] is 6.2; in test [11] it was 3.6. In addition, the EC50 was determined as 0.7 nM in [10]; 1 nM in test [12]; 0.9 nM in [13]; 2.2 nM in test [14]; 1.8 nM in test [15].
